According to patent US7531554B2, “4-oxoquinoline compound and use thereof as HIV integrase inhibitor” (Japan Tobacco Inc., priority 2004, dated 2009):
Counter-ions that a name gives are not always drawn.

Each compound was assayed against T1, HIV integrase (Human immunodeficiency virus type 1 group M subtype B, UniProt P12497, F1332H) (assay: Determination of enzyme (HIV integrase) inhibitory activity). Details: recombinant integrase protein (F185H), donor DNA/target DNA, absorbance at 450 nm.
T1 construct: HIV integrase full length gene (J. Virol., 67, 425-437 (1993)) in which phenylalanine at codon 185 was substituted by histidine; made in house; host or cells: Escherichia coli BL21(DE3)
Assay type: biochemical
Experimental: HIV integrase full length gene (J. Virol., 67, 425-437 (1993)) in which phenylalanine at codon 185 was substituted by histidine, was inserted between the restriction enzyme NdeI and XhoI sites of plasmid pET21a(+) (Novagen), whereby an integrase expression vector pET21a-IN-F185H was constructed.
Escherichia coli recombinant BL21(DE3) transformed with plasmid pET21a-IN-F185H obtained in (i) was shake cultured at 30° C. in a liquid medium containing ampicillin. When the culture reached the logarithmic growth phase, isopropyl-β-D-thiogalactopyranoside was added to promote expression of integrase gene. The culture was continued for 3 hr to promote accumulation of the integrase protein. The recombinant E. coli was collected in pellets by centrifugal separation and preserved at −80° C.
The E. coli was suspended in Lysis buffer (20 mM HEPES (pH 7.5), 5 mM DTT, 10 mM CHAPS, 10% glycerol) containing 1M sodium chloride and subjected to repeat pressurization and depressurization for rupture, and centrifugal separation at 4° C., 40,000×g, 60 min to recover a water-soluble fraction (supernatant). This was diluted 10-fold with Lysis buffer free of sodium chloride, mixed with SP-Sepharose (Pharmacia Corporation) and stirred at 4° C. for 60 min to allow adsorption of integrase protein to the resin. The resin was washed with Lysis buffer containing 100 mM sodium chloride and the integrase protein was eluted with Lysis buffer containing 1M sodium chloride.
The eluted integrase protein solution was subjected to a Superdex 75 (Pharmacia Corporation) column for gel filtration. The protein was eluted with Lysis buffer containing 1M sodium chloride.
The obtained fractions of the integrase protein were collected and preserved at −80° C.
The following DNA synthesized by Greiner was dissolved in TE buffer (10 mM Tris-hydrochloric acid (pH 8.0), 1 mM EDTA) and mixed with donor DNA, target DNA, and each complementary strand (+ and − strands) to 1 μM. The mixture was heated at 95° C. for 5 min, 80° C. for 10 min, 70° C. for 10 min, 60° C. for 10 min, 50° C. for 10 min and 40° C. for 10 min and kept at 25° C. to give a double stranded DNA, which was used for the test. Donor DNA ([…] attached to the 5′ terminal) Donor + strand: 5′-Biotin-ACCCTTTTAGTCAGTGTGGAAAATCTCTAGCA-3′ (SEQ ID NO:1) Donor − strand: 5′-ACTGCTAGAGATTTTCCACACTGACTAAAAG-3′ (SEQ ID NO:2) Target DNA (+, − strands both having digoxigenin added at 3′ terminal) Target + strand: 5′-TGACCAAGGGCTAATTCACT-Dig-3′ (SEQ ID NO:3) Target − strand: 5′-AGTGAATTAGCCCTTGGTCA-Dig-3′ (SEQ ID NO:4)
The donor DNA was diluted with TE buffer to 10 nM, of which 50 μl was added to each well of streptavidin-coated microtiter plate (Roche) and allowed to adsorb at 37° C. for 60 min. The plate was washed with phosphate buffer (Dulbecco's PBS, Sanko Junyaku Co., Ltd.) containing 0.1% Tween 20 and phosphate buffer. Then, an enzyme reaction mixture (70 μl), a test substance (10 μl) diluted with the reaction mixture and 100 μg/ml integrase protein (10 μl) were added to each well and reacted at 37° C. for 60 min.
Then, 50 nM target DNA (10 μl) was added, reacted at 37° C. for 10 min and washed with phosphate buffer containing 0.1% Tween 20 to stop the reaction.
Then, 100 mU/ml peroxidase labeled anti-digoxigenin antibody solution (Roche, 100 μl) was added, and the mixture was reacted at 37° C. for 60 min, followed by washing with phosphate buffer containing 0.1% Tween 20.
A peroxidase color solution (Bio Rad, 100 μl) was added and allowed to react at room temperature for 4 min. The color reaction was stopped by adding 1N sulfuric acid (100 μl). The absorbance at 450 nm was measured.
The HIV integrase inhibitory activity (IC50) of the compound of the present invention was calculated from the inhibition rate according to the following formula. […]
`CC1CN(c2cc3c(cc2Cc2cccc(Cl)c2F)c(=O)c(C(=O)O)cn3[C@H](CO)C(C)C)CC(C)N1` (stereo partly drawn) [Example 4-22, 6-(3-chloro-2-fluorobenzyl)-7-(3,5-dimethylpiperazin-1-yl)-1-((1S)-1-(hydroxymethyl)-2-methylpropyl)-4-oxo-1,4-dihydroquinoline-3-carboxylic acid] was tested, and the IC50 was 7.1 nM.
Work on `CS(=O)(=O)CC[C@@H](CO)n1cc(C(=O)O)c(=O)c2cc(Cc3cccc(Cl)c3F)ccc21` [Example 2-17, 6-(3-chloro-2-fluorobenzyl)-1-((1S)-1-(hydroxymethyl)-3-mesylpropyl)-4-oxo-1,4-dihydroquinoline-3-carboxylic acid] yielded an IC50 of 14 nM.
For `CC(C)[C@@H](CO)n1cc(C(=O)O)c(=O)c2cc(Cc3cccc(Cl)c3F)c(N3CC[C@H](O)C3)cc21` [Example 4-24, 6-(3-chloro-2-fluorobenzyl)-1-((1S)-1-(hydroxymethyl)-2-methylpropyl)-7-((3S)-3-hydroxypyrrolidin-1-yl)-4-oxo-1,4-dihydroquinoline-3-carboxylic acid], the IC50 was 12 nM.
With `CC(C)[C@@H](CO)n1cc(C(=O)O)c(=O)c2cc(Cc3cccc(Cl)c3F)c(O[C@@H]3CCOC3)cc21` [Example 4-48, 6-(3-chloro-2-fluorobenzyl)-1-((1S)-1-(hydroxymethyl)-2-methylpropyl)-4-oxo-7-((3R)-tetrahydrofuran-3-yloxy)-1,4-dihydroquinoline-3-carboxylic acid] the IC50 was 5.6 nM.
Work on `CC(C)[C@@H](CO)n1cc(C(=O)O)c(=O)c2cc(Cc3cccc(Cl)c3F)c(OCCCCN)cc21` [Example 4-34, 7-(4-aminobutoxy)-6-(3-chloro-2-fluorobenzyl)-1-((1S)-1-(hydroxymethyl)-2-methylpropyl)-4-oxo-1,4-dihydroquinoline-3-carboxylic acid hydrochloride] yielded an IC50 of 3.9 nM.
`CC(C)[C@@H](CO)n1cc(C(=O)O)c(=O)c2cc(Cc3cccc(Cl)c3F)c(N3CCNCC3)cc21` [Example 4-12, 6-(3-chloro-2-fluorobenzyl)-1-((1S)-1-(hydroxymethyl)-2-methylpropyl)-4-oxo-7-(piperazin-1-yl)-1,4-dihydroquinoline-3-carboxylic acid] gave an IC50 of 7.3 nM.
`CC(C)[C@@H](CO)n1cc(C(=O)O)c(=O)c2cc(Cc3cccc(Cl)c3F)c(OCCCN(C)C)cc21` [Example 4-6, 6-(3-chloro-2-fluorobenzyl)-7-(3-(dimethylamino)propoxy)-1-((1S)-1-(hydroxymethyl)-2-methylpropyl)-4-oxo-1,4-dihydroquinoline-3-carboxylic acid] was tested, and the IC50 was 6.3 nM.
For `CC(=O)NCCOc1cc2c(cc1Cc1cccc(Cl)c1F)c(=O)c(C(=O)O)cn2[C@H](CO)C(C)C` [Example 4-41, 7-(2-(acetylamino)ethoxy)-6-(3-chloro-2-fluorobenzyl)-1-((1S)-1-(hydroxymethyl)-2-methylpropyl)-4-oxo-1,4-dihydroquinoline-3-carboxylic acid], the IC50 was 4.5 nM.
In the case of `COc1cc2c(cc1Cc1cccc(Cl)c1F)c(=O)c(C(=O)O)cn2[C@H](CO)CS(C)(=O)=O` [Example 2-4, 6-(3-chloro-2-fluorobenzyl)-1-((1R)-1-(hydroxymethyl)-2-mesylethyl)-7-methoxy-4-oxo-1,4-dihydroquinoline-3-carboxylic acid], the IC50 is reported as 10 nM.
`CC(C)[C@@H](CO)n1cc(C(=O)O)c(=O)c2cc(Cc3cccc(Cl)c3F)c(N3CCOCC3)cc21` [Example 4-9, 6-(3-chloro-2-fluorobenzyl)-1-((1S)-1-(hydroxymethyl)-2-methylpropyl)-7-(morpholin-4-yl)-4-oxo-1,4-dihydroquinoline-3-carboxylic acid] was tested, and the IC50 was 6 nM.
For `CC(C)[C@@H](CO)n1cc(C(=O)O)c(=O)c2cc(Cc3cccc(Cl)c3F)c(OCc3ccccc3)cc21` [Example 4-43, 7-benzyloxy-6-(3-chloro-2-fluorobenzyl)-1-((1S)-1-(hydroxymethyl)-2-methylpropyl)-4-oxo-1,4-dihydroquinoline-3-carboxylic acid], the IC50 was 6.4 nM.
`CC(C)[C@@H](CO)n1cc(C(=O)O)c(=O)c2cc(Cc3cccc(Cl)c3F)c(Oc3ccccc3)cc21` [Example 4-44, 6-(3-chloro-2-fluorobenzyl)-1-((1S)-1-(hydroxymethyl)-2-methylpropyl)-4-oxo-7-phenoxy-1,4-dihydroquinoline-3-carboxylic acid] showed an IC50 of 4.9 nM.
For `COCCCOc1cc(Cc2cccc(Cl)c2F)cc2c(=O)c(C(=O)O)cn([C@H](CO)C(C)C)c12` [Example 3-7, 6-(3-chloro-2-fluorobenzyl)-1-((1S)-1-(hydroxymethyl)-2-methylpropyl)-8-(3-methoxypropoxy)-4-oxo-1,4-dihydroquinoline-3-carboxylic acid], the IC50 was 4.7 nM.
`COc1cc2c(cc1Cc1c(O)ccc(Cl)c1F)c(=O)c(C(=O)O)cn2[C@H](CO)C(C)C` [Example 1-3, 6-(3-chloro-2-fluoro-6-hydroxybenzyl)-1-((1S)-1-(hydroxymethyl)-2-methylpropyl)-7-methoxy-4-oxo-1,4-dihydroquinoline-3-carboxylic acid] was tested, and the IC50 was 7.8 nM.
In the case of `CC(C)[C@@H](CO)n1cc(C(=O)O)c(=O)c2cc(Cc3cccc(Cl)c3F)c(NC3CCNCC3)cc21` [Example 4-42, 6-(3-chloro-2-fluorobenzyl)-1-((1S)-1-(hydroxymethyl)-2-methylpropyl)-4-oxo-7-(piperidin-4-ylamino)-1,4-dihydroquinoline-3-carboxylic acid], the IC50 is reported as 7.9 nM.
With `CC(C)(C)[C@@H](CO)n1cc(C(=O)O)c(=O)c2cc(Cc3cccc(Cl)c3F)c(N3CCOCC3)cc21` [Example 7-6, 6-(3-chloro-2-fluorobenzyl)-1-((1S)-2,2-dimethyl-1-(hydroxymethyl)propyl)-7-(morpholin-4-yl)-4-oxo-1,4-dihydroquinoline-3-carboxylic acid] the IC50 was 4.3 nM.
`COCCCCOc1cc(Cc2cccc(Cl)c2F)cc2c(=O)c(C(=O)O)cn([C@H](CO)C(C)C)c12` [Example 3-8, 6-(3-chloro-2-fluorobenzyl)-1-((1S)-1-(hydroxymethyl)-2-methylpropyl)-8-(4-methoxybutoxy)-4-oxo-1,4-dihydroquinoline-3-carboxylic acid] gave an IC50 of 4 nM.
Work on `CC(C)[C@@H](CO)n1cc(C(=O)O)c(=O)c2cc(Cc3cccc(Cl)c3F)c(OCCN3CCCC3)cc21` [Example 4-17, 6-(3-chloro-2-fluorobenzyl)-1-((1S)-1-(hydroxymethyl)-2-methylpropyl)-4-oxo-7-(2-(pyrrolidin-1-yl)ethoxy)-1,4-dihydroquinoline-3-carboxylic acid] yielded an IC50 of 11 nM.
Compound `COc1cc2c(cc1Cc1cccc(Cl)c1F)c(=O)c(C(=O)O)cn2[C@H](CO)C1CCOCC1` [Example 2-1, 6-(3-chloro-2-fluorobenzyl)-1-((1S)-2-hydroxy-1-(tetrahydropyran-4-yl)ethyl)-7-methoxy-4-oxo-1,4-dihydroquinoline-3-carboxylic acid] has an IC50 of 4.6 nM.
In the case of `CC(C)[C@@H](CO)n1cc(C(=O)O)c(=O)c2cc(Cc3cccc(Cl)c3F)c(OCCN(C)C)cc21` [Example 4-2, 6-(3-chloro-2-fluorobenzyl)-7-(2-(dimethylamino)ethoxy)-1-((1S)-1-(hydroxymethyl)-2-methylpropyl)-4-oxo-1,4-dihydroquinoline-3-carboxylic acid], the IC50 is reported as 6 nM.
